The NIST ThermoML archive (doi:10.1021/acs.jced.5b00154)
± gives the expanded uncertainty stated by the source.

Details: 101.33 kPa, Liquid, Vibrating tube method

[2H]O[2H] [water-d2]
mass density (278.15 K): 1105.53 ± 0.08 kg/m3
mass density (288.15 K): 1105.77 ± 0.08 kg/m3
mass density (298.15 K): 1104.36 ± 0.079 kg/m3
mass density (308.15 K): 1101.63 ± 0.079 kg/m3
mass density (318.15 K): 1097.84 ± 0.078 kg/m3
